The source of these data is patent publication US5714499A, “3-amino-2-oxo-1-piperidineacetic derivatives containing an arginine mimic as enzyme inhibitors” (Corvas International, Inc., priority 1994, dated 1998).

Read-outs that look alike come from different tables or passages of the source.

As usually defined, the IC50 is the concentration that gives 50% inhibition. A higher IC50 goes with weaker potency. In general, ED50 refers to the dose that gives a 50% effect, or the effect in half of the subjects. The term Ki denotes the dissociation constant of the complex between target and ligand, obtained from inhibition or displacement. The low end stands for a stronger hold on the target, the high end for a looser hold on the target.

The target of one data set is plasmin (Homo sapiens, UniProt P00747). In words: Plasmin assay (specificity determination). Particulars: maximal concentration 25,000 nM, mean of at least two independent experiments. It is filed as biochemical. How it is done:
Plasmin catalytic activity was determined using the chromogenic substrate, S-2251 [D-valyl-L-leucyl-L-lysine-p-nitroanilide], which was obtained from Kabi Diagnostica.

Data set [1] deals with rat plasma clotting (APTT). In words: Ex vivo anticoagulant effect, APTT in citrated rat plasma. From the text: (§1) The control clotting times (0 inhibitor) for rat and human plasma were 19 seconds and 29 seconds, respectively. The concentration of BzlSO2 -norVal(cyclo)-Gly-Ala(3-guanPip)al which caused a doubling of the control clotting time in rat and human plasma was 12.7 micromolar and 9.1 micromolar, respectively. The data is the mean of two independent determinations.
(§2) Fresh frozen citrated pooled normal human plasma was obtained from George King Biomedical, Overland Park, Kans. Pooled normal rat plasma was prepared from citrated whole blood collected from anesthetized rats using standard procedures. The plasma was flash frozen and stored at -80° C. until use. Measurements APTT was made using the Coag-A-Mate RA4 automated coagulometer (General Diagnostics, Organon Technica, Oklahoma City, Okla.) using the Automated APTT reagent (Organon Technica, Durham, N.C.) as the initiator of clotting according to the manufacturers instructions. The assay was conducted by making a series of dilution's of Isomer B in rapidly thawed plasma followed by adding 200 microliters to the wells of the assay carousel.

The subject of data set [2] is human plasma clotting (APTT). In words: Ex vivo anticoagulant effect, APTT in citrated human plasma.
From the text: as §1, §2

The subject of data set [3] is FeCl3-induced occlusive thrombus in rat carotid artery. Briefly: Rat model of FeCl3-induced platelet-dependent arterial thrombosis. It is filed as in vivo. Particulars: for Incidence of Occlusion: single intravenous bolus 5 minutes before FeCl3, n = 6, 60 minutes, saline 6/6; for ED50: Rattus norvegicus, read-out: ED50 for thrombus prevention in the FeCl3 model of arterial thrombosis. The text has this:
Kurz, K. D., Main, B. W., and Sandusky, G. E., Thromb. […] In this model a platelet-rich, occlusive thrombus is formed in a segment of the rat carotid artery treated locally with a fresh solution of FeCl3 absorbed to a piece of filter paper. The FeCl3 is thought to diffuse into the treated segment of artery and causes de-endothelialization of the affected vessel surface. […] The effect of a test compound on the incidence of occlusive thrombus formation following the application of the FeCl3 is monitored by ultrasonic flowtometry and is used as the primary end point. The use of flowtometry to measure carotid artery blood flow, is a modification of the original procedure in which thermal detection of clot formation was employed. Kurz, K. D., Main, B. W., and Sandusky, G. E., Thromb.
The animals were prepared, anesthetized with Nembutal followed by the insertion of catheters for blood pressure monitoring, drug and anesthesia delivery. The left carotid artery was isolated by making a midline cervical incision followed by blunt dissection and spreading techniques to separate a 2 cm segment of the vessel from the carotid sheath. A silk suture is inserted under the proximal and distal ends of the isolated vessel to provide clearance for the placement of a ultrasonic flow probe (Transonic) around the proximal end of the vessel. The probe is then secured with a stationary arm.
Following surgery the animals were randomized in either a control (saline) or treatment group with test compound (Isomer B) with at least 6 animals per group per dose. The test compound was administered as a single intravenous bolus at the doses outlined in Table 3 after placement of the flow probe and 5 minutes prior to the thrombogenic stimulus. […] Blood pressure, blood flow, heart rate, and respiration were monitored for 60 minutes.
The incidence of occlusion (defined as the attainment of zero blood flow) was recorded as the primary end point and as a measure of the antithrombotic efficacy of Isomer B.

The target of data set [4] is T1, human alpha-thrombin (Homo sapiens, UniProt P00734). As to conditions: Table 4, human alpha-thrombin.
Experimental: Enzyme activity was determined using the chromogenic substrate Pefachrome t-PA (CH3 SO2 -D-hexahydrotyrosine-glycyl-L-Arginine-p-nitroanilide), obtained from Pentapharm Ltd. The substrate was reconstituted in deionized water prior to use. Purified human alpha-thrombin (3000U/mg specific activity) was obtained from Enzyme Research Laboratories, Inc. The buffer used for all assays was HBSA (10 mM HEPES, pH 7.5, 150 mM sodium chloride, 0.1%, bovine serum albumin).
Velocities of chromogenic substrate hydrolysis which occurred over 40 min was measured by the change in absorbance at 405 nm using a Thermo Max® Kinetic Microplate Reader. […] The extent of substrate hydrolysis was less than 5% over the course of this assay.
In data set [5] the target is T1, human alpha-thrombin. In words: biochemical.
Experimental: The buffer used for all assays was HBSA (10 mM HEPES, pH 7.5, 150 mM sodium chloride, 0.1% bovine serum albumin). […] Following a 30-minute incubation at ambient temperature, 50 microliters of the substrate at the concentrations specified below, was added to the wells yielding a final total volume of 200 microliters. The initial velocity of chromogenic substrate hydrolysis was measured by the change in absorbance at 405nm using a Thermo Max® Kinetic Microplate Reader over a 5 minute period in which less than 5% of the added substrate was utilized.
Thrombin catalytic activity was determined using the chromogenic substrate Pefachrome t-PA (CH3 SO2 -D-hexahydrotyrosine-glycyl-L-arginine-p-nitroanilide, obtained from Pentapharm Ltd.). The substrate was made up in deionized water followed by dilution in HBSA prior to the assay in which the final concentration was 300 micromolar (about 5-times Km). Purified human alpha-thrombin was obtained from Enzyme Research Laboratories, Inc. The enzyme was diluted into HBSA prior to the assay in which the final concentration was 0.25 nM.
The next data set concerns thrombin. As to conditions: literature; cited from earlier work.
The conditions of data set [6]: literature; cited from earlier work.
The conditions of data set [7]: literature; cited from earlier work. The source holds these as a separate data set.

Chain of plasmin (P00747 581-810 limits assumed): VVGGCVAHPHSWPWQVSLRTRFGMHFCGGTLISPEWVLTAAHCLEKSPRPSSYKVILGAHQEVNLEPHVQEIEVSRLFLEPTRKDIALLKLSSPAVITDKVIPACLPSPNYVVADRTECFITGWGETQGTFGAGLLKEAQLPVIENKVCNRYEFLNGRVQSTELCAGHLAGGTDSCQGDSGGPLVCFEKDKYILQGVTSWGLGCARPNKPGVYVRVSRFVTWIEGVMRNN
Chain of plasmin (P00747 97-580 limits assumed): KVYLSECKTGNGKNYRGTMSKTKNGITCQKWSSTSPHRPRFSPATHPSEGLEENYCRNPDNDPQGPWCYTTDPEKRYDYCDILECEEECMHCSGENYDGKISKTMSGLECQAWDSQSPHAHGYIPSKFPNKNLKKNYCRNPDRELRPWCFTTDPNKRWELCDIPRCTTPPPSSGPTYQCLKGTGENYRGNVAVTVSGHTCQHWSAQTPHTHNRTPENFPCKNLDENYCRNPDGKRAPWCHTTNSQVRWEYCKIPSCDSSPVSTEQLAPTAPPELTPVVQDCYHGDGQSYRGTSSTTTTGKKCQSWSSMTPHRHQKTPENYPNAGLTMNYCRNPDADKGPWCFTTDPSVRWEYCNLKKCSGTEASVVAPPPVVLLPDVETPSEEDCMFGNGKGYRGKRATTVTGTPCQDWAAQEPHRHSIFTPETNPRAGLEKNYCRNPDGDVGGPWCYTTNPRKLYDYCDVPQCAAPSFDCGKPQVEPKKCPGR

Regarding `N=C(N)N1CCCC(C[C@@H](C=O)NC(=O)CN2CCC[C@H](NS(=O)(=O)Cc3ccccc3)C2=O)C1` (single isomer, unassigned) [Isomer B], the concentration for half-maximal inhibition (IC50) was above 25000 nM against plasmin and 0.9 nM against human alpha-thrombin [5]. Also, the “prolongation of the APTT” value in [1] and in data set [2] (human plasma) was “prolonged the APTT in a dose dependent manner” throughout. In addition, the “concentration which caused a doubling of the control clotting time (APTT)” value in data set [2] (citrated human plasma, control clotting time 29 seconds, mean of two independent determinations) was determined as 9.1 µM. Besides, the “Incidence of Occlusion” value in [3] (0.3 mg/kg) is 6/6; in [3] (1.0 mg/kg), 4/6; in data set [3] (3.0 mg/kg, p ≤ 0.05 from saline control by Fishers test), 0/6. The median effective dose (ED50) in [3] was 1.4 mg/kg. The compound further had a Ki on human alpha-thrombin [4] of 0.318 nM.

For `N=C(N)c1ccc(CC(=O)C(=O)O)cc1` [APPA, 4-amidinophenylpyruvic acid], in the data set with thrombin, the “selectivity of thrombin inhibition” value is “non-selective, inhibiting trypsin, plasmin and kallikrein”. In [6], the toxicity result was “low toxicity”. For the same compound, in data set [7], the pharmacokinetics entry is “favourable pharmacokinetics”.

In the case of `CC1CNc2c(cccc2S(=O)(=O)N[C@@H](CCCNC(=N)N)C(=O)N2CC[C@@H](C)C[C@@H]2C(=O)O)C1` (stereo partly drawn) [Argatroban, 2R,4R-4-methyl-1-[N-2-(3-methyl-1,2,3,4-tetrahydro-8-quinolinesulfonyl)-L-argininal]-2-piperdinecarboxylic acid, reference compound], the ED50 in [3] (dose that prevents complete thrombotic occlusion in 50% of animals tested) turned out to be 3.8 mg/kg.

Take `CS(=O)(=O)O.CS(=O)(=O)O.N=C(N)Nc1ccc(C(=O)Oc2ccc3cc(C(=N)N)ccc3c2)cc1` [FUT 175, 6-amidino-2-naphthyl-4-guanidinobenzoate dimethanesulfonate]: the “selectivity of thrombin inhibition” value with thrombin was “non-selective”.
